Measurements published in patent publication US12637465B2, “Pharmaceutically acceptable salts of sepiapterin” (PTC Therapeutics MP, Inc., priority 2018, dated 2026).

Columns and labels:
Assay type in all cases: physicochemical
[1] = Solid form stability study of salts and/or co-crystals at 25° C./60% RH and 40° C./75% RH
Experimental: The stability of the prepared salts and/or co-crystals was analyzed after 1 and 2 weeks at 25° C. and 60% relative humidity and 40° C. and 75% relative humidity. […] None of the phosphate, tartrate, or nicotinate salts and/or co-crystals underwent a form change during the stability testing, and each of them retained greater than 97% purity over the two weeks of the study. In fact, both the tartrate and nicotinate both retained greater than 99% purity.

[2] = Kinetic solubility in water and Medisca Oral Mix (HPLC solubility, purity and pH of supernatant); settings: RT; for Purity (area %) of supernatant: for reference only; for Solubility: calculated using freebase, target conc. 7 mg/mL
Experimental: (§1) The kinetic solubility was evaluated for nicotinate, phosphate, L-tartrate, and fumarate salts and/or co-crystals of sepiapterin in water and […] Oral Mix. X-ray powder diffraction (XRPD) was performed for the residual solids to identify form change/disproportionation. Solids were suspended into the media with target conc. of 7 mg/mL (calculated by freebase).

[3] = Form change/disproportionation of residual solids by XRPD after suspension in water or Medisca Oral Mix; settings: for Form change (residual solids, XRPD): RT; for Form of the residual solids in Medisca Oral Mix / Form of the residual solids in water: after 1 hour
Experimental: as §1, with “freebase). […] Oral Mix after 1 hour. […] Oral Mix.” for “freebase).”

[4] = Medisca Oral Mix, 1 hr, listed as fumarate salt and/or co-crystal
[5] = Medisca Oral Mix, 4 hr, listed as fumarate salt and/or co-crystal
[6] = Medisca Oral Mix, 24 hr, listed as fumarate salt and/or co-crystal
[7] = Water, 1 hr, listed as fumarate salt and/or co-crystal
[8] = Water, 4 hr, listed as fumarate salt and/or co-crystal
[9] = Water, 24 hr, listed as fumarate salt and/or co-crystal
[10] = Medisca Oral Mix, 1 hr, listed as L-tartrate salt and/or co-crystal
[11] = Medisca Oral Mix, 4 hr, listed as L-tartrate salt and/or co-crystal
[12] = Medisca Oral Mix, 24 hr, listed as L-tartrate salt and/or co-crystal
[13] = Water, 1 hr, listed as L-tartrate salt and/or co-crystal
[14] = Water, 4 hr, listed as L-tartrate salt and/or co-crystal
[15] = Water, 24 hr, listed as L-tartrate salt and/or co-crystal

## C[C@H](O)C(=O)C1=Nc2c(nc(N)[nH]c2=O)NC1 [Benzenesulfonate, sepiapterin]
[1]; 1 week, 25° C./60% RH
  Purity (Area %): 90.68 Area %
  Purity vs. initial (%): 100.5%
[1]; 1 week, 40° C./75% RH
  Purity (Area %): 82.63 Area %
  Purity vs. initial (%): 91.6%
[1]; 2 weeks, 25° C./60% RH
  Purity (Area %): 86.37 Area %
  Purity vs. initial (%): 95.8%
[1]; 2 weeks, 40° C./75% RH
  Purity (Area %): 82.65 Area %
  Purity vs. initial (%): 91.6%
[1]; Initial
  Purity (Area %): 90.20 Area %

## C[C@H](O)C(=O)C1=Nc2c(nc(N)[nH]c2=O)NC1 [Fumarate, sepiapterin]
[1]
  Stability in the solid form stability study of Example 2: high stability
[1]; 1 week, 25° C./60% RH
  Form change: No
  Purity (Area %): 99.39 Area %
  Purity vs. initial (%): 99.9%
[1]; 1 week, 40° C./75% RH
  Form change: No
  Purity (Area %): 99.15 Area %
  Purity vs. initial (%): 99.7%
[1]; 2 weeks, 25° C./60% RH
  Purity (Area %): 99.25 Area %
  Purity vs. initial (%): 99.7%
[1]; 2 weeks, 40° C./75% RH
  Purity (Area %): 98.98 Area %
  Purity vs. initial (%): 99.5%
[1]; Initial
  Purity (Area %): 99.46 Area %
[2]; Medisca Oral Mix, 1 hr
  Observation: Turbid
[2]; [4]
  Purity (area %) of supernatant: 99.74 area %
  pH: 4.0
[2]; Medisca Oral Mix, 4 hr
  Observation: Turbid
[2]; [5]
  Purity (area %) of supernatant: 99.60 area %
  pH: 4.0
[2]; Medisca Oral Mix, 24 hr
  Observation: Turbid
[2]; [6]
  Purity (area %) of supernatant: 96.54 area %
  pH: 4.0
[2]; Water, 1 hr
  Observation: Turbid
[2]; [7]
  Purity (area %) of supernatant: 98.39 area %
  pH: 3.1
[2]; Water, 4 hr
  Observation: Turbid
[2]; [8]
  Purity (area %) of supernatant: 98.19 area %
  pH: 3.1
[2]; Water, 24 hr
  Observation: Turbid
[2]; [9]
  Purity (area %) of supernatant: 95.43 area %
  pH: 3.1
[3]
  Disproportionation in the disproportionation study: no evidence of disproportionation
[3]; [4]
  Form change (residual solids, XRPD): No **
[3]; [5]
  Form change (residual solids, XRPD): No **
[3]; [6]
  Form change (residual solids, XRPD): No **
[3]; Medisca Oral Mix, listed as fumarate salt and/or co-crystal
  Form of the residual solids in Medisca Oral Mix: crystallinity of residual solids decreased
[3]; [7]
  Form change (residual solids, XRPD): No
[3]; [8]
  Form change (residual solids, XRPD): No
[3]; [9]
  Form change (residual solids, XRPD): No
[3]; listed as fumarate salt and/or co-crystal
  Form of the residual solids in water: no form change was observed

## C[C@H](O)C(=O)C1=Nc2c(nc(N)[nH]c2=O)NC1 [Gentisate, sepiapterin]
[1]; 1 week, 25° C./60% RH
  Purity (Area %): 97.66 Area %
  Purity vs. initial (%): 103.5%
[1]; 1 week, 40° C./75% RH
  Purity (Area %): 96.89 Area %
  Purity vs. initial (%): 102.7%
[1]; 2 weeks, 25° C./60% RH
  Purity (Area %): 97.00 Area %
  Purity vs. initial (%): 102.8%
[1]; 2 weeks, 40° C./75% RH
  Purity (Area %): 93.37 Area %
  Purity vs. initial (%): 102.1%
[1]; Initial
  Purity (Area %): 94.35 Area %

## C[C@H](O)C(=O)C1=Nc2c(nc(N)[nH]c2=O)NC1 [Glycolate, sepiapterin]
[1]; 1 week, 25° C./60% RH
  Purity (Area %): 98.93 Area %
  Purity vs. initial (%): 99.7%
[1]; 1 week, 40° C./75% RH
  Purity (Area %): 98.54 Area %
  Purity vs. initial (%): 99.3%
[1]; 2 weeks, 25° C./60% RH
  Purity (Area %): 98.86 Area %
  Purity vs. initial (%): 99.7%
[1]; 2 weeks, 40° C./75% RH
  Purity (Area %): 98.52 Area %
  Purity vs. initial (%): 99.3%
[1]; Initial
  Purity (Area %): 99.19 Area %

## C[C@H](O)C(=O)C1=Nc2c(nc(N)[nH]c2=O)NC1 [HCI, sepiapterin]
[1]; 1 week, 25° C./60% RH
  Form change: No
  Purity (Area %): 97.19 Area %
  Purity vs. initial (%): 103.5%
[1]; 1 week, 40° C./75% RH
  Form change: No
  Purity (Area %): 89.25 Area %
  Purity vs. initial (%): 95.0%
[1]; 2 weeks, 25° C./60% RH
  Form change: No
  Purity (Area %): 91.84 Area %
  Purity vs. initial (%): 97.8%
[1]; 2 weeks, 40° C./75% RH
  Form change: No
  Purity (Area %): 84.16 Area %
  Purity vs. initial (%): 89.6%
[1]; Initial
  Purity (Area %): 93.94 Area %

## C[C@H](O)C(=O)C1=Nc2c(nc(N)[nH]c2=O)NC1 [L-Tartrate, sepiapterin]
[1]
  Stability compared with the other salts and/or co-crystals tested: noticeably more stable than the others
[1]; 1 and 2 weeks, 25° C./60% RH and 40° C./75% RH
  Underwent a form change during the stability testing: None
[1]; 1 week, 25° C./60% RH
  Form change: No
  Purity (Area %): 98.61 Area %
  Purity vs. initial (%): 99.9%
[1]; 1 week, 40° C./75% RH
  Form change: No
  Purity (Area %): 99.06 Area %
  Purity vs. initial (%): 99.3%
[1]; 2 weeks, 25° C./60% RH
  Form change: No
  Purity (Area %): 99.39 Area %
  Purity vs. initial (%): 99.6%
[1]; 2 weeks, 40° C./75% RH
  Form change: No
  Purity (Area %): 99.00 Area %
  Purity vs. initial (%): 99.3%
[1]; Initial
  Purity (Area %): 99.75 Area %
[2]; Medisca Oral Mix, 1 hr
  Observation: Turbid
[2]; [10]
  Purity (area %) of supernatant: 99.68 area %
  pH: 3.3
[2]; Medisca Oral Mix, 4 hr
  Observation: Turbid
[2]; [11]
  Solubility: 2500 µg/mL
  Purity (area %) of supernatant: 99.54 area %
  pH: 3.3
[2]; Medisca Oral Mix, 24 hr
  Observation: Turbid
[2]; [12]
  Solubility: 3200 µg/mL
  Purity (area %) of supernatant: 95.67 area %
  pH: 3.3
[2]; Water, 1 hr
  Observation: Turbid
[2]; [13]
  Purity (area %) of supernatant: 99.34 area %
  pH: 2.5
[2]; Water, 4 hr
  Observation: Turbid
[2]; [14]
  Purity (area %) of supernatant: 99.07 area %
  pH: 2.5
[2]; Water, 24 hr
  Observation: Turbid
[2]; [15]
  Purity (area %) of supernatant: 95.61 area %
  pH: 2.5
[3]; [10]
  Form change (residual solids, XRPD): Yes
[3]; [11]
  Form change (residual solids, XRPD): Yes
[3]; [12]
  Form change (residual solids, XRPD): Yes
[3]; Medisca Oral Mix
  Form of the residual solids in Medisca Oral Mix: converted to freebase
[3]; [13]
  Form change (residual solids, XRPD): Yes
[3]; [14]
  Form change (residual solids, XRPD): Yes
[3]; [15]
  Form change (residual solids, XRPD): Yes
[3]
  Form of the residual solids in water: converted to freebase

## C[C@H](O)C(=O)C1=Nc2c(nc(N)[nH]c2=O)NC1 [Malonate, sepiapterin]
[1]; 1 week, 25° C./60% RH
  Purity (Area %): 99.39 Area %
  Purity vs. initial (%): 99.9%
[1]; 1 week, 40° C./75% RH
  Purity (Area %): 99.14 Area %
  Purity vs. initial (%): 99.7%
[1]; 2 weeks, 25° C./60% RH
  Purity (Area %): 99.23 Area %
  Purity vs. initial (%): 99.8%
[1]; 2 weeks, 40° C./75% RH
  Purity (Area %): 97.81 Area %
  Purity vs. initial (%): 98.3%
[1]; Initial
  Purity (Area %): 99.45 Area %

## C[C@H](O)C(=O)C1=Nc2c(nc(N)[nH]c2=O)NC1 [Methanesulfonate, sepiapterin]
[1]; 1 week, 25° C./60% RH
  Form change: No
  Purity (Area %): 95.26 Area %
  Purity vs. initial (%): 104.5%
[1]; 1 week, 40° C./75% RH
  Form change: No
  Purity (Area %): 88.68 Area %
  Purity vs. initial (%): 97.3%
[1]; 2 weeks, 25° C./60% RH
  Form change: No
  Purity (Area %): 91.95 Area %
  Purity vs. initial (%): 100.9%
[1]; 2 weeks, 40° C./75% RH
  Form change: No
  Purity (Area %): 85.97 Area %
  Purity vs. initial (%): 94.3%
[1]; Initial
  Purity (Area %): 91.14 Area %

## C[C@H](O)C(=O)C1=Nc2c(nc(N)[nH]c2=O)NC1 [Sulfate, sepiapterin]
[1]; 1 week, 25° C./60% RH
  Form change: No
  Purity (Area %): 95.22 Area %
  Purity vs. initial (%): 97.8%
[1]; 1 week, 40° C./75% RH
  Form change: No
  Purity (Area %): 89.44 Area %
  Purity vs. initial (%): 91.9%
[1]; 2 weeks, 25° C./60% RH
  Form change: No
  Purity (Area %): 93.46 Area %
  Purity vs. initial (%): 96.0%
[1]; 2 weeks, 40° C./75% RH
  Form change: No
  Purity (Area %): 88.20 Area %
  Purity vs. initial (%): 90.6%
[1]; Initial
  Purity (Area %): 97.33 Area %

## C[C@H](O)C(=O)C1=Nc2c(nc(N)[nH]c2=O)NC1 [Toluenesulfonate, sepiapterin]
[1]; 1 week, 25° C./60% RH
  Form change: No
  Purity (Area %): 94.19 Area %
  Purity vs. initial (%): 97.3%
[1]; 1 week, 40° C./75% RH
  Form change: No
  Purity (Area %): 89.11 Area %
  Purity vs. initial (%): 92.0%
[1]; 2 weeks, 25° C./60% RH
  Form change: No
  Purity (Area %): 91.40 Area %
  Purity vs. initial (%): 94.4%
[1]; 2 weeks, 40° C./75% RH
  Form change: No
  Purity (Area %): 88.12 Area %
  Purity vs. initial (%): 91.0%
[1]; Initial
  Purity (Area %): 96.84 Area %
